Measured values: patent EP2878677A1, “Activators of protein phosphatase 5” (Deutsches Zentrum für Neurodegenerative Erkrankungen e.V. …, priority 2013, dated 2015)

Molecular target: T1, PP5 (Rattus norvegicus, UniProt P53042)
T1 construct: The full-length PP5 and its deletion variants were purified and the activity was determined; made in house; host or cells: E. coli BL21-CodonPlus (DE3)-RIL
T1 sequence (P53042 1-499): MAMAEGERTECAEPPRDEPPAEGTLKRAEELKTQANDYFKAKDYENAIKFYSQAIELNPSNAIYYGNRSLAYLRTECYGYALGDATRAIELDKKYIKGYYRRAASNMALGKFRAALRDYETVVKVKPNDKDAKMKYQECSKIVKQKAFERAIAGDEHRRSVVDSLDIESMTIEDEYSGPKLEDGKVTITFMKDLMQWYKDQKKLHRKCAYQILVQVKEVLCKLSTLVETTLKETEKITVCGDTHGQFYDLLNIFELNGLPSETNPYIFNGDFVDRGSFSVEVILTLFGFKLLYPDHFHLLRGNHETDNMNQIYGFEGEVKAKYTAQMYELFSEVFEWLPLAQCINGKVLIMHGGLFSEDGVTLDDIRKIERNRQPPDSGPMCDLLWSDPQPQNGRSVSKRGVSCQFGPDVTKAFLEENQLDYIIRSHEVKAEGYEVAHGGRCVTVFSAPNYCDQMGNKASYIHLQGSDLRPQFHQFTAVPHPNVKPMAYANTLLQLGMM
Assay: pNPP-based phosphatase assay with full-length mammalian PP5
Assay type: biochemical
Experimental: Cloning and purification of PPH-5, Hsp90/DAF-21, CDC-37, YFP-Hsp90/DAF-21 were performed as described before (Gaiser et al., 2009; Gaiser et al., 2011; Gaiser et al., 2010). The purified human phosphatases PP1, PP2A and PP2B/PP3 were purified as described (Baumgrass et al., 2001; Mondragon et al., 1997; Tung et al., 1985). The expression clones of mammalian PP5, PP5-ΔN165 (166-499) and PP5-ΔC8 (1-491) were generated by PCR from plasmid-DNA containing full-length PP5 from Rattus norvegicus. PCR-products were inserted into the pET28b expression plasmid (Merck, Darmstadt, Germany) and verified by DNA sequencing (GATC Biotech, Konstanz, Germany). Proteins were expressed in BL21-CodonPlus (DE3)-RIL bacteria (Stratagene, LaJolla, USA). Bacterial cultures were grown to an OD600 of 0.8 and induced with 1 mM IPTG. Cells were disrupted using a cell disruption machine (IUL Instruments, Freiburg, Germany) and the lysate was loaded onto a HisTrap FF column (GE Healthcare, Freiburg, Germany). Protein was eluted in a buffer containing 400 mM imidazole. Eluted protein was dialyzed and applied to a ResourceQ anion exchange column (GE Healthcare, Freiburg, Germany). Finally, proteins were subjected to size exclusion chromatography on Superdex 200 PrepGrade gel filtration columns (GE Healthcare, Freiburg, Germany). Protein purity was assessed by SDS-PAGE and the molecular mass was determined by a MALDI-TOF/TOF mass spectrometer (Bruker, Bremen, Germany). Proteins were frozen in liquid nitrogen in 40 mM HEPES/KOH, pH 7.5, 20 mM KCl, 1 mM DTT and stored at -80 °C.
Phosphatase activity was followed by the conversion of para-nitrophenyl phosphate (pNPP) to para-nitophenole and absorption of the product at 410 nm (ε: 15100 cm^-1 M^-1) in a Varian Cary 100 spectrophotometer (Agilent Technologies, Boeblingen, Germany). The reaction was measured in 40 mM HEPES/KOH, 20 mM KCl, 5 mM MnCl2, 1 mM DTT, pH 7.5 and 60 mM pNPP at 20 °C if not indicated otherwise. Phosphatase concentration ranged from 50 to 500 nM in the assay. If indicated, Hsp90/DAF-21 peptide was supplemented in the assay at a concentration of 60 µM.
For characterization of the binding site of the P5SAs, deletion constructs of rat PP5 were generated. […] The full-length PP5 and its deletion variants were purified and the activity was determined in the absence and presence of 10 µM and 100 µM (45 µM in case of P5SA-5) of the substances, respectively (Figure 3A-C).

SMILES	fold activation (at 143 µM)	fold activation (at 714 µM)	also measured
O=c1cc2nc(-c3ccc(F)cc3)nc(SCc3ccc(Br)cc3)n2[nH]1 [P5SA-4]	16.4 fold	–	–
COc1ccc(-c2nc(Cc3ccc(Cl)cc3)no2)cc1OC [P5SA-2]	–	13.7 fold	–
FC(F)(F)c1c2c(nc3c(-c4ccc(Cl)cc4)cnn13)CCC2 [P5SA-1]	2.7 fold	–	–
CN1CCc2c(sc(-n3cccc3)c2CNC(=O)NC23CC4CC(CC(C4)C2)C3)C1 [P5SA-3]	–	7.0 fold	–
CNC(=O)c1c(NC(=O)COCC(=O)Nc2sc3c(c2C(=O)NC)CCC3)sc2c1CCC2 [P5SA-5]	–	–	fold activation (at 45 µM): 22.1 fold; Kd (rat PP5, read-out: binding constant (affinity towards the mammalian protein)): 10 ± 5 µM
